Test results taken from the supplement of paper PMC10477900.
Counter-ions that a name gives are not always drawn.

Columns and labels:
[1] = system: HCT116; settings: 72 h
Procedure: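 HCT116 control and MTA1-KO (CRISPR) HCT116 cells were seeded in 384-well plates (800 cells/well), treated 16 h later with 237 metabolism-related anticancer drugs at five doses (10 uM, 2 uM, 400 nM, 80 nM, 16 nM) for 72 h, two replicates; viability by CCK8. Values are % inhibition of viability relative to untreated cells, plus fitted IC50.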

[2] = system: HCT116; experiment: viability inhibition vs untreated; higher = more cytotoxic; settings: 72 h

Row | Compound | IC50 ([1]; genotype: MTA1-KO) | IC50 ([1]; genotype: control) | viability inhibition ([2]; genotype: MTA1-KO, 16 nM) | viability inhibition ([2]; genotype: MTA1-KO, 80 nM) | viability inhibition ([2]; genotype: MTA1-KO, 400 nM) | viability inhibition ([2]; genotype: MTA1-KO, 2000 nM) | viability inhibition ([2]; genotype: MTA1-KO, 10000 nM) | viability inhibition ([2]; genotype: control, 16 nM) | viability inhibition ([2]; genotype: control, 80 nM) | viability inhibition ([2]; genotype: control, 400 nM) | viability inhibition ([2]; genotype: control, 2000 nM) | viability inhibition ([2]; genotype: control, 10000 nM)
1 | NCc1ccc(S(N)(=O)=O)cc1 [Mafenide hydrochloride] | > 10 µM | > 10 µM | -13% | -12.9% | -16.5% | -13.4% | -15.9% | -4.74% | 6.87% | -2.33% | -2.58% | -6.77%
2 | Cc1ccc(-c2cn3c4c(sc3n2)CCCC4)cc1 [Pifithrin-β hydrobromide] | > 10 µM | > 10 µM | -6.36% | -17.5% | -18.2% | -13.4% | 33% | -6.38% | -10.8% | -7.66% | 2.45% | -13.6%
3 | CO[C@H]1C[C@@H]2CC[C@@H](C)[C@@](O)(O2)C(=O)C(=O)N2CCCC[C@H]2C(=O)O[C@H]([C@H](C)C[C@@H]2CC[C@@H](OCCO)[C@H](OC)C2)CC(=O)[C@H](C)/C=C(\C)[C@@H](O)[C@@H](OC)C(=O)[C@H](C)C[C@H](C)/C=C/C=C/C=C/1C [Everolimus] | > 10 µM | > 10 µM | -19% | -24.2% | -24.2% | -22.2% | -6.06% | 5.54% | 0.73% | 1.76% | 3.41% | 25.7%
4 | O=c1oc2cc(O)ccc2s1 [Tioxolone] | > 10 µM | > 10 µM | -23.8% | -21.4% | -19% | -28.2% | -26.1% | 0.941% | -1.9% | -1.53% | -13.6% | -6.09%
5 | COc1ccc(COc2cc3oc(=O)c4cc(C(C)O)ccc4c3cc2OC)cc1 (stereo unspecified) [Palomid 529] | 0.283 µM | 1.11 µM | -7.41% | 23.6% | 37.3% | 64.4% | 90.1% | 7.44% | 22.7% | 38.9% | 54.6% | 86.9%
6 | CC(=O)OC(C)(C)/C=C/C(=O)[C@](C)(O)[C@H]1[C@H](O)C[C@@]2(C)[C@@H]3CC=C4[C@@H](C[C@H](O)C(=O)C4(C)C)[C@]3(C)C(=O)C[C@]12C [Cucurbitacin B] | 0.34 µM | 4.56 µM | -3.8% | -16.3% | 58.7% | 66.6% | 79.9% | -19.7% | -9.21% | 33.3% | 49.7% | 58.9%
7 | Cc1c(NC(=O)c2cc(C(N)=O)nc3cc(F)ccc23)c(C(F)(F)F)nn1Cc1ccc(C#N)cc1 [BAY876] | < 0.016 µM | < 0.016 µM | 50.2% | 73% | 82% | 90.4% | 110% | 72.8% | 89.8% | 97.7% | 103% | 102%
8 | CC(C)(C)c1ccc(S(=O)(=O)NCc2ccc(C(=O)Nc3cccnc3)cc2)cc1 [STF31] | > 10 µM | 1.33 µM | 0.724% | -19.9% | -8.95% | -5.53% | 6.98% | 18.1% | 6.81% | 42.8% | 43.4% | 74.1%
9 | O=C(O)C[C@H](O)C[C@H](O)/C=C/c1c(C2CC2)nc2ccccc2c1-c1ccc(F)cc1 [Pitavastatin calcium] | > 10 µM | 3.1 µM | -24.4% | -25.7% | -30.7% | -23.8% | 31% | 11% | -0.547% | -0.73% | 5.9% | 75.5%
10 | CC(=O)OCC(=O)[C@@]1(O)CC[C@H]2[C@@H]3CCC4=CC(=O)C=C[C@]4(C)[C@H]3[C@@H](O)C[C@@]21C [Prednisolone-21-acetate] | > 10 µM | > 10 µM | -12.5% | -14% | -3.35% | -0.355% | -5.46% | -5.13% | -7.24% | -8.51% | -7.3% | -12.1%
11 | COC(=O)N1CCN(Cc2cccc(NC(=O)Nc3ccc(C)nc3)c2F)CC1 [Omecamtiv mecarbil] | > 10 µM | > 10 µM | -10% | -12.1% | -17.5% | -17.9% | 8.94% | 8.94% | 4.13% | -7.43% | 1.24% | 5.67%
12 | CC1=C(/C=C/C(C)=C/C=C/C(C)=C/C(=O)O)C(C)(C)CCC1 [Tretinoin] | > 10 µM | > 10 µM | -24.6% | -24.4% | -23.5% | -20.8% | -24.5% | -4.55% | -1.65% | -12.1% | -9.98% | -3.87%
13 | CC(C)CC(N)=O [Isovaleramide] | > 10 µM | > 10 µM | -15.6% | -17.2% | -11.3% | -17.2% | -13% | -6.22% | -6.16% | -2.21% | -1.96% | -10.4%
14 | COc1cc2c(cc1O)CC[C@@H]1[C@@H]2CC[C@]2(C)[C@@H](O)CC[C@@H]12 [2-Methoxyestradiol] | 3.34 µM | > 10 µM | 12.6% | 9.89% | 15.7% | 38.7% | 80.2% | 8.28% | 14.6% | 22.6% | 24.1% | 33.6%
15 | CC(=O)O[C@H]1[C@H]2O[C@]23[C@@H]2CC[C@@H]4C[C@@H](O)CC[C@]4(C)[C@H]2CC[C@]3(C)[C@H]1c1ccc(=O)oc1 [Cinobufagin] | < 0.016 µM | 0.0795 µM | 51.8% | 51.6% | 84.4% | 88.9% | 92.1% | 19.9% | 58.1% | 96.5% | 96.5% | 94.8%
16 | CC1(C)CC[C@]2(C(=O)O)CC[C@]3(C)[C@H](C(=O)C=C4[C@@]5(C)C=C(C#N)C(=O)C(C)(C)[C@@H]5CC[C@]43C)[C@@H]2C1 [Bardoxolone] | 3.04 µM | 2.54 µM | 6.64% | -8.28% | -9% | 44.1% | 103% | -7.41% | -6.83% | -2.5% | 40.7% | 103%
17 | Clc1ccccc1C(c1ccccc1)(c1ccccc1)n1ccnc1 [Clotrimazole] | > 10 µM | > 10 µM | -16.8% | -16.8% | -15% | -23.3% | -4.67% | 0.201% | -0.602% | -4.37% | -8.31% | 2.92%
18 | NNC(=O)c1ccncc1 [Isoniazid] | > 10 µM | > 10 µM | -5.84% | -18.3% | -14.4% | -18.3% | -0.042% | -10.3% | -11.9% | -11.5% | 1.11% | 38%
